Measurements as given in US20240279236A1, “COMPOUNDS AND METHODS OF TREATING TUBERCULOSIS” (Fimbrion Therapeutics, Inc., priority 2021, published 2024).

The compounds below were run on WT Mtb Erdman strain (assay: Microplate Alamar Blue Assay (MABA), Mtb growth inhibition). Settings: Mycobacterium tuberculosis, ERDMAN, 168 h, Middlebrook 7H9 media, 7 days at 37° C. in 5% CO2.
Format: cell-based, Mycobacterium tuberculosis

SMILES	IC50 [nM]
Cc1cc2c(NCCCc3ccccc3)nc(CS(C)(=O)=O)nc2s1 [Example 74, 6-methyl-2-((methylsulfonyl)methyl)-N-(3-phenylpropyl)thieno [2,3-d]pyrimidin-4-amine]	> 10000
CSCc1nc(NCCCc2ccccc2)c2cc(C)sc2n1 [Example 75, 6-methyl-2-((methylthio)methyl)-N-(3-phenylpropyl)thieno [2,3-d]pyrimidin-4-amine]	2000
CCSc1nc(NCCCc2ccccc2)c2cc(C)sc2n1 [Example 76, 2-(ethylthio)-6-methyl-N-(3-phenylpropyl)thieno [2,3-d]pyrimidin-4-amine]	92
Cc1cc2c(NCCCc3ccccc3)nc(N(C)C)nc2s1 [Example 77, N2,N2,6-trimethyl-N4-(3-phenylpropyl)thieno [2,3-d]pyrimidine-2,4-diamine]	140
Cc1cc2c(NCCCc3ccccc3)nc(-c3ccncn3)nc2s1 [Example 78, 6-methyl-N-(3-phenylpropyl)-2-(pyrimidin-4-yl)thieno[2,3-d]pyrimidin-4-amine]	160
Cc1cc2c(NCCCc3ccc(OC(F)(F)F)cc3)nc(-c3ccncn3)nc2s1 [Example 79, 6-methyl-2-(pyrimidin-4-yl)-N-(3-(4-(trifluoromethoxy)phenyl)propyl)thieno [2,3-d]pyrimidin-4-amine]	480
CCc1nc(NCCCNc2ccccc2)c2cc(C)sc2n1 [Example 80, N1-(2-ethyl-6-methylthieno[2,3-d]pyrimidin-4-yl)-N3-phenylpropane-1,3-diamine]	470
COCc1nc(NCCCc2ccccc2)c2cc(C)sc2n1 [Example 81, 2-(methoxymethyl)-6-methyl-N-(3-phenylpropyl)thieno [2,3-d]pyrimidin-4-amine]	3000
Cc1cc2c(NCCCc3ccc(OC(F)(F)F)cc3)nc(-c3ccc(F)cc3)nc2s1 [Example 82, 2-(4-fluorophenyl)-6-methyl-N-(3-(4-(trifluoromethoxy)phenyl)propyl)thieno[2,3-d]pyrimidin-4-amine]	1100
Cc1cc2c(NCCCc3ccc(O)cc3)nc(-c3ccc(F)cc3)nc2s1 [Example 83, 4-(3-((2-(4-fluorophenyl)-6-methylthieno[2,3-d]pyrimidin-4-yl)amino)propyl) phenol]	2500
Fc1ccc(-c2nc(N[C@@H]3C[C@H]3c3ccc(F)c(F)c3)c3cc(C(F)(F)F)sc3n2)cc1 [Example 85, N-((1R,2S)-2-(3,4-difluorophenyl)cyclopropyl)-2-(4-fluorophenyl)-6-(trifluoromethyl)thieno [2,3-d]pyrimidin-4-amine]	> 6800
CCc1nc(NCCCc2ccccc2)c2cc(CC)sc2n1 [Example 86, 2,6-diethyl-N-(3-phenylpropyl)thieno [2,3-d]pyrimidin-4-amine]	> 1200
CCCCSc1nc(N[C@@H]2C[C@H]2c2ccc(F)c(F)c2)c2cc(C)sc2n1 [Example 87, 2-(butylthio)-N-((1R,2S)-2-(3,4-difluorophenyl)cyclopropyl)-6-methylthieno[2,3-d]pyrimidin-4-amine]	1500
Cc1cc2c(N[C@@H]3C[C@H]3c3ccc(F)c(F)c3)nc(-c3ccco3)nc2s1 [Example 88, N-((1R,2S)-2-(3,4-difluorophenyl)cyclopropyl)-2-(furan-2-yl)-6-methylthieno[2,3-d]pyrimidin-4-amine]	2200
Cc1cccc(-c2nc(N[C@@H]3C[C@H]3c3ccc(F)c(F)c3)c3cc(C)sc3n2)n1 [Example 89, N-((1R,2S)-2-(3,4-difluorophenyl)cyclopropyl)-6-methyl-2-(6-methylpyridin-2-yl)thieno[2,3-d]pyrimidin-4-amine]	> 10000
Cc1cc2c(NCCCc3ccccc3)nc(-c3ccc(Cl)cc3)nc2s1 [Example 90, 2-(4-chlorophenyl)-6-methyl-N-(3-phenylpropyl)thieno [2,3-d]pyrimidin-4-amine]	2000
Cc1cc2c(NCCCc3ccccc3)nc(-c3cccc(Cl)c3)nc2s1 [Example 91, 2-(3-chlorophenyl)-6-methyl-N-(3-phenylpropyl)thieno [2,3-d]pyrimidin-4-amine]	5900
Cc1cc2c(NCCCc3ccccc3)nc(-c3ccc(N(C)C)cc3)nc2s1 [Example 92, 2-(4-(dimethylamino)phenyl)-6-methyl-N-(3-phenylpropyl)thieno [2,3-d]pyrimidin-4-amine]	2700
Cc1cc2c(NCCCc3ccccc3)nc(C3CCCC3)nc2s1 [Example 94, 2-cyclopentyl-6-methyl-N-(3-phenylpropyl)thieno [2,3-d]pyrimidin-4-amine]	930
Cc1cc2c(NCCCc3ccccc3)nc(C3CCCCC3)nc2s1 [Example 95, 2-cyclohexyl-6-methyl-N-(3- |phenylpropyl)thieno [2,3-d]pyrimidin-4-amine]	> 10000
Cc1cc2c(NCCCc3ccccc3)nc(C(N)=O)nc2s1 [Example 96, 6-methyl-4-((3-phenylpropyl)amino) thieno[2,3-d]pyrimidine-2-carboxamide]	130
Cc1cc2c(NCCCc3ccccc3)nc(CC3CC3)nc2s1 [Example 97, 2-(cyclopropyLMethyl)-6-methyl-N-(3. phenylpropyl)thieno [2,3-d]pyrimidin-4-amine]	360

SMILES	IC50 [nM]
COC(=O)c1nc(NCCCc2ccccc2)c2cc(C)sc2n1 [Example 98, methyl 6-methyl-4-((3-phenylpropyl)amino) thieno[2,3-d]pyrimidine-2-carboxylate]	> 10000
CCc1nc(NCCCc2ccccc2)c2cc(C(F)(F)F)sc2n1 [Example 99, 2-ethyl-N-(3-phenylpropyl)-6-(trifluoromethyl)thieno [2,3-d]pyrimidin-4-amine]	5700
Cc1cc2c(NCCCc3ccccc3)nc(SC(C)C)nc2s1 [Example 100, 2-(isopropylthio)-6-methyl-N-(3-phenylpropyl)thieno [2,3-d]pyrimidin-4-amine]	3200
Cc1cc2c(NCCCc3ccccc3)nc(-c3ccsc3)nc2s1 [Example 101, 6-methyl-N-(3-phenylpropyl)-2-(thiophen-3-yl)thieno[2,3-d]pyrimidin-4-amine]	490
Cc1cc2c(NCCCc3ccccc3)nc(-c3ccoc3)nc2s1 [Example 102, 2-(furan-3-yl)-6-methyl-N-(3-phenylpropyl)thieno [2,3-d]pyrimidin-4-amine]	27
COc1ccc(CCCNc2nc(SC)nc3sc(C)cc23)cc1 [Example 103, N-(3-(4-methoxyphenyl)propyl)-6-methyl-2-(methylthio)thieno[2,3-d]pyrimidin-4-amine]	22
Cc1cc2c(NCCCc3ccccc3)nc(-c3cccnn3)nc2s1 [Example 104, 6-methyl-N-(3-phenylpropyl)-2-(pyridazin-3-yl)thieno[2,3-d]pyrimidin-4-amine]	2000
Cc1cc2c(NCCCc3ccccc3)nc(-c3cnccn3)nc2s1 [Example 105, 6-methyl-N-(3-phenylpropyl)-2-(pyrazin-2-yl)thieno[2,3-d]pyrimidin-4-amine]	2000
Cc1cc2c(NCCCc3ccccc3)nc(C3CCC3)nc2s1 [Example 106, 2-cyclobutyl-6-methyl-N-(3-phenylpropyl)thieno [2,3-d]pyrimidin-4-amine]	490
Cc1cc2c(N[C@@H]3C[C@H]3c3ccc(F)c(F)c3)nc(C(N)=O)nc2s1 [Example 107, 4-(((1R,2S)-2-(3,4-difluorophenyl)cyclopropyl)amino)-6-methylthieno[2,3-d]pyrimidine-2-carboxamide]	> 6400
Cc1cc2c(NCCCc3ccccc3)nc(CN3CCCC3)nc2s1 [Example 108, 6-methyl-N-(3-phenylpropyl)-2-(pyrrolidin-1-yLM ethyl)thieno[2,3-d]pyrimidin-4-amine]	> 7800
Cc1cc2c(NCCCc3ccccc3)nc(CN(C)C)nc2s1 [Example 109, 2-((dimethylamino)methyl)-6-methyl-N-(3-phenylpropyl)thieno [2,3-d]pyrimidin-4-amine]	> 10000
Cc1cc2c(NCCCc3ccccc3)nc(-c3ccon3)nc2s1 [Example 110, 2-(isoxazol-3-yl)-6-methyl-N-(3-phenylpropyl)thieno [2,3-d]pyrimidin-4-amine]	55
Cc1cc(-c2nc(NCCCc3ccccc3)c3cc(C)sc3n2)no1 [Example 111, 6-methyl-2-(5-methylisoxazol-3-yl)-N-(3-phenylpropyl)thieno [2,3-d]pyrimidin-4-amin]	210
Cc1cc2c(NCCCc3ccccc3)nc(-c3cc[nH]n3)nc2s1 [Example 112, 6-methyl-N-(3-phenylpropyl)-2-(1H-pyrazol-3-yl)thieno[2,3-d]pyrimidin-4-amine]	2800
Cc1cc2c(NCCCc3ccccc3)nc(-c3ccco3)nc2s1 [Example 113]	800
Cc1cc2c(N[C@@H]3C[C@H]3c3ccc(F)c(F)c3)nc(-c3ccoc3)nc2s1 [Example 114, N-((1R,2S)-2-(3,4-difluorophenyl)cyclopropyl)-2-(furan-3-yl)-6-methylthieno[2,3-d]pyrimidin-4-amine]	620
Cc1cc2c(N[C@@H]3C[C@H]3c3ccc(F)c(F)c3)nc(C3CCC3)nc2s1 [Example 115, 2-cyclobutyl-N-((1R,2S)-2-(3,4-difluorophenyl)cyclopropyl)-6-methylthieno[2,3-d]pyrimidin-4-amine]	640
COC(C)(C)c1nc(NCCCc2ccccc2)c2cc(C)sc2n1 [Example 116, 2-(2-methoxypropan-2-yl)-6-methyl-N-(3-phenylpropyl)thieno [2,3-d]pyrimidin-4-amine]	> 10000
COC(=O)c1nc(NCCCc2ccc(OC(F)(F)F)cc2)c2cc(C)sc2n1 [Example 117, methyl 6-methyl-4-((3-(4-(trifluoromethoxy)phenyl)propyl)amino) thieno[2,3-d]pyrimidine-2-carboxylate]	> 7700
COc1ccc(CCCNc2nc(-c3ccoc3)nc3sc(C)cc23)cc1 [Example 118, 2-(furan-3-yl)-N-(3-(4-methoxyphenyl)propyl)-6-methylthieno[2,3-d]pyrimidin-4-amine]	82
Cc1cc2c(NCCCc3ccccc3)nc(-c3cnsc3)nc2s1 [Example 119, 2-(isothiazol-4-yl)-6-methyl-N-(3-phenylpropyl)thieno [2,3-d]pyrimidin-4-amine]	560
